Test results published in PMC12595434, “Development of retinoid nuclear receptor pathway antagonists through targeting aldehyde dehydrogenase 1A3” (iScience, 2025).
Values after ≈ are worked out from the molar mass of the structure shown. Like-named read-outs stand apart in the source and are kept apart here.

Assays:
human ALDH1A1 = target: T1, human ALDH1A1 (Homo sapiens, UniProt P00352); assay: Recombinant enzyme activity assay; type: biochemical; conditions: dose titration, up to 10 μM
T1 construct: made in house; host or cells: BL21-DE3 E. coli
T1 sequence (P00352 1-501): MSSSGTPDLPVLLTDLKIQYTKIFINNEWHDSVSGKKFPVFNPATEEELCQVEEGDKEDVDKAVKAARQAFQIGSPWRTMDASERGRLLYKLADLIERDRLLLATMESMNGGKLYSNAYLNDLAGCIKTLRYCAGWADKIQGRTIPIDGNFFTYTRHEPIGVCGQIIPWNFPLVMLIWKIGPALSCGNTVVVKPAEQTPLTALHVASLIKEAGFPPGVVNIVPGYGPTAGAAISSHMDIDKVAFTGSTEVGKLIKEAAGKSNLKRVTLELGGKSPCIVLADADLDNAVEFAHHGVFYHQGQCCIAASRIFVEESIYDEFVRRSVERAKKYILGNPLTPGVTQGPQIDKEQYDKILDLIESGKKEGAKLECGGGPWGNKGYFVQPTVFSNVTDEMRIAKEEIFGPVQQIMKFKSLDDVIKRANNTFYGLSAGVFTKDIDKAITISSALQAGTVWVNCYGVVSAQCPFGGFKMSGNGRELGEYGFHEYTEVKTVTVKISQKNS
Protocol: Purified enzyme was used for biochemical and biophysical assays.
(§2) For the recombinant enzyme activity assay, enzyme aliquots were thawed on ice for 4 h prior to analysis and the protocol was performed as described[8] with the following key changes: 1) Final concentrations of NAD+ (Gold Bio) were 200 μM and BSA were 1 mg/mL 2) Propanaldehyde was used as the substrate for ALDH1A1 and ALDH2. 3) Reaction velocity was monitored through diaphorase (clostridium) coupled reduction of resazurin (100 μM) monitored with ex/em of 560nm/590 nm in order to regenerate NAD+ and thus maintain constant cofactor concentration as well as to avoid high absorbance values of many screening compounds at the NADH absorbance. Assays were conducted at room temperature (controlled to 21-23C) and all buffers were maintained at pH 7.5. For all reactions, pre-incubation time was approximately 2 min while the reaction monitoring was performed over 10 min.

[1] = target: T2, human ALDH1A3 in A375 cells (Homo sapiens, UniProt P47895); assay: Aldefluor assay in A375 cells; type: cell-based; conditions: for Aldefluor activity at 100 nM (in words): A375 cells; for EC50: Aldefluor in A375 cells, read-out: EC50 cellular, human ALDH1A3
T2 construct: the cell lines with high endogenous ALDH1A3 activity: MDA-MB-468 (triple-negative breast cancer), A375 (melanoma), and LN229 (glioblastoma); endogenous in cells; host or cells: A375
T2 sequence (P47895 1-512): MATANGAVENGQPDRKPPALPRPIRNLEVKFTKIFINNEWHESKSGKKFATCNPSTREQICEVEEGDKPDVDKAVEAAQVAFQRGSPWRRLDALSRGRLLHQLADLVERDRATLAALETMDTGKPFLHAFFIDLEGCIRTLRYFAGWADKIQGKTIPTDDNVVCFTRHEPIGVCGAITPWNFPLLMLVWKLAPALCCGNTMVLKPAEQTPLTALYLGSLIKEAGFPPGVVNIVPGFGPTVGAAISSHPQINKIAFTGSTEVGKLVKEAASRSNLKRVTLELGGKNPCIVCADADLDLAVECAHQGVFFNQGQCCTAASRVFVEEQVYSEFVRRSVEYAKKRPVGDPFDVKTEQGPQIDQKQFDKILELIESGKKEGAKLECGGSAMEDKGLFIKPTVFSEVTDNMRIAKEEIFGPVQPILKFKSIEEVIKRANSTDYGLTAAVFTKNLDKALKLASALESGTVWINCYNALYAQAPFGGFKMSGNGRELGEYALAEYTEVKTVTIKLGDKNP
Protocol: In addition, cells were suspended at a concentration of 100,000 cells per mL. Finally, DMSO was added to at 1% final in all cells to improve kinetics of the assay. For compound titrations, concentrated compound stock was added first to tubes and a uniform Aldefluor buffer containing the cell suspension was added to dilute to final volumes. Cells were analyzed by a BD LSRII for flow cytometry and were sorted using a FACSAria Fusion cell sorter (BD Biosciences) equipped with a 70 micron nozzle. Sample and sort collection tubes were kept at 4°C. […] DAPI was used as a live-dead indicator.

[2] = test system: endogenous ALDH1A3 in MDA-MB-468 cells; assay: Quantification of atRA in cells; type: cell-based, human; conditions: 24 h, dose titration
Kinetic solubility = type: physicochemical; conditions: kinetic from dmso stock
Excerpt: (§1) Table 1 Physiochemical, biochemical, and metabolic profile of lead compounds MBE1 and MBE1.5 | column: MBE1; MBE1.5

[3] = Microsomal stability (mouse); type: in vitro ADME; conditions: microsomes, read-out: Microsomal T1/2 (mouse)
Protein binding (human) = type: in vitro ADME; conditions: plasma
Excerpt: as §1

CYP1A2 = CYP1A2 (Homo sapiens, UniProt P05177); assay: CYP inhibition; type: in vitro ADME
CYP2C19 = CYP2C19 (Homo sapiens, UniProt P33261); assay: CYP inhibition; type: in vitro ADME
CYP2D6 = CYP2D6 (Homo sapiens, UniProt P10635); assay: CYP inhibition; type: in vitro ADME
CYP3A4 = CYP3A4 (Homo sapiens, UniProt P08684); assay: CYP inhibition; type: in vitro ADME
hERG [4] = target: T3, hERG (Homo sapiens, UniProt Q12809); assay: hERG patch-clamp; type: cell-based
hERG [5] = target: T3, hERG; assay: hERG dofetilide binding assay
COX1 = COX1 (Homo sapiens, UniProt P23219); assay: Off-target profiling panel; type: biochemical; conditions: read-out: Inhibition by MBE1 at 10 μM (%)
ALDH1A3 [6] = target: T4, ALDH1A3 (Homo sapiens, UniProt P47895); assay: Recombinant enzyme activity assay; type: biochemical; design: made in house; host or cells: BL21-DE3 E. coli
T4 sequence (P47895 1-512): T2 sequence (P47895 1-512)
Protocol: We then tested each published ALDH inhibitor against the three human ALDH1A enzymes to assess inhibitory activity and isozyme selectivity.
Recombinant protein was isolated by inducing BL21-DE3 E. coli (Thermo Fisher) containing the respective plasmid for 20 h at room temperature, shaking, with 300 μM IPTG (Selleck Chem). […] The target protein was then purified using Ni NTA beads 6FF affinity chromatography. Lysis buffer consisted of 50 mM Na2HPO4, 300 mM NaCl, 1 mM β-ME, pH7.5. The column (2 mL) was washed with 50 mM Na2HPO4, 300 mM NaCl, 1 mM β-ME, 20 mM Imidazole, pH7.5. Elution was performed using 3 mL of 50 mM Na2HPO4, 300 mM NaCl, 1 mM β-ME, 250 mM Imidazole, pH7.5. Following affinity chromatography, the protein underwent further purification via Gel filtration chromatography using a Superdex200 column. […] Purified enzyme was used for biochemical and biophysical assays.
as §2

ALDH1A3 [7] = target: T4, ALDH1A3; assay: Microscale thermophoresis (MST) binding; design: made in house; host or cells: BL21-DE3 E. coli; conditions: biophysical assay (Table 1)
[8] = IV/PO pharmacokinetics in fasted male CD-1 mice
[9] = Cytotoxicity, 48 h tetrazolium proliferation assay
T3-MCA tumors = assay: Tumor infiltrating immune cell profiling of T3-MCA tumors; conditions: oral gavage, 7 days of treatment
[10] = test system: human ALDH1A3 in MCF7-ALDH1A3 cells; assay: STRA6 qPCR retinoid inhibition assay in MCF7-ALDH1A3 cells; conditions: for IC50: 24 h, read-out: cellular IC50 for ALDH1A3, STRA6 mRNA; for EC50: read-out: EC50 cellular, human ALDH1A3
[11] = pH 4.5, aqueous buffer, read-out: Kinetic solubility pH 4.5
[12] = pH 7.6, aqueous buffer, read-out: Kinetic solubility pH 7.6
[13] = 1 mg/kg IV and 10 mg/kg PO, fasted male CD1 mice

T3 sequence (Q12809 whole entry): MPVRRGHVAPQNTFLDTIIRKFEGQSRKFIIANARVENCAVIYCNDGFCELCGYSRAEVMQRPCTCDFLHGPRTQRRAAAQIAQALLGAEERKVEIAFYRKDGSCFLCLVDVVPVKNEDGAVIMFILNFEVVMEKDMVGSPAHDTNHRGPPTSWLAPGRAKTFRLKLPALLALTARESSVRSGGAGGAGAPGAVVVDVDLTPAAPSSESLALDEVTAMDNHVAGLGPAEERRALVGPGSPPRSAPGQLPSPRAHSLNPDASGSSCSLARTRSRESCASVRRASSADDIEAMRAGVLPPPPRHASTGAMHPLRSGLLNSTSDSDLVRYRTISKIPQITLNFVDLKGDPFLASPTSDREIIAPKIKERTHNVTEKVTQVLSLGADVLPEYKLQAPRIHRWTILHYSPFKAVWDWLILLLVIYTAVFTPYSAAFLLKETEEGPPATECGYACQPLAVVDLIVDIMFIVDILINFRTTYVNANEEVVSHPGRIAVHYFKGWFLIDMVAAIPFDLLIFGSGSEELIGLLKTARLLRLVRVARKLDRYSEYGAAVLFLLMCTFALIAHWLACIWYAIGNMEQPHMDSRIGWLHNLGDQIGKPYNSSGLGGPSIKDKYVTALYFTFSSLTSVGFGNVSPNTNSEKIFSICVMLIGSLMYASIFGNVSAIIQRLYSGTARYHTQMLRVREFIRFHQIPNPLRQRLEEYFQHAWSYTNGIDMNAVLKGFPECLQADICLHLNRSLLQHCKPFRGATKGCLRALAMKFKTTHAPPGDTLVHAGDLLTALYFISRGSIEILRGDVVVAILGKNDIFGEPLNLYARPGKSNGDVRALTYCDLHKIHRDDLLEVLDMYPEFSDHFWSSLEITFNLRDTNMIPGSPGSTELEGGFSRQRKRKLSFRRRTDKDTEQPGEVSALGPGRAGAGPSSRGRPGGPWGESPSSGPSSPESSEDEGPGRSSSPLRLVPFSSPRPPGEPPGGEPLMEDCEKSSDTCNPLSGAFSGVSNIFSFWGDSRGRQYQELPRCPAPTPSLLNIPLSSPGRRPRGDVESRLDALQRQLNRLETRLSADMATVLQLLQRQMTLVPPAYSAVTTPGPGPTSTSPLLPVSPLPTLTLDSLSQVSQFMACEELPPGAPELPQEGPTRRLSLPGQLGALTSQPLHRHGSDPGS
Chain of CYP3A4 (P08684 whole entry): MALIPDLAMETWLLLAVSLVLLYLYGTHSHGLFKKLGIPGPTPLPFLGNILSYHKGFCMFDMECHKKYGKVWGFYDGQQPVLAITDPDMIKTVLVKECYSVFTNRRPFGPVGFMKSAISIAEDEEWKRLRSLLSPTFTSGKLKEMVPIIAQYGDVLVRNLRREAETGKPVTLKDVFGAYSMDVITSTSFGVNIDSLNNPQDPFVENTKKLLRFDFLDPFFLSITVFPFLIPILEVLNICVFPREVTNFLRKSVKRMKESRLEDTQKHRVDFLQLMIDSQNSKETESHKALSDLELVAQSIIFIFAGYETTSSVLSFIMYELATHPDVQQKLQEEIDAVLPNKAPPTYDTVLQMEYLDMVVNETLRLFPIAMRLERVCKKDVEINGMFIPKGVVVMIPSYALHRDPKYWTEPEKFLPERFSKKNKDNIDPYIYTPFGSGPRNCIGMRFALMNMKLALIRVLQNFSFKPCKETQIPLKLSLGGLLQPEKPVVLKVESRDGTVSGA
Chain of CYP2D6 (P10635 whole entry): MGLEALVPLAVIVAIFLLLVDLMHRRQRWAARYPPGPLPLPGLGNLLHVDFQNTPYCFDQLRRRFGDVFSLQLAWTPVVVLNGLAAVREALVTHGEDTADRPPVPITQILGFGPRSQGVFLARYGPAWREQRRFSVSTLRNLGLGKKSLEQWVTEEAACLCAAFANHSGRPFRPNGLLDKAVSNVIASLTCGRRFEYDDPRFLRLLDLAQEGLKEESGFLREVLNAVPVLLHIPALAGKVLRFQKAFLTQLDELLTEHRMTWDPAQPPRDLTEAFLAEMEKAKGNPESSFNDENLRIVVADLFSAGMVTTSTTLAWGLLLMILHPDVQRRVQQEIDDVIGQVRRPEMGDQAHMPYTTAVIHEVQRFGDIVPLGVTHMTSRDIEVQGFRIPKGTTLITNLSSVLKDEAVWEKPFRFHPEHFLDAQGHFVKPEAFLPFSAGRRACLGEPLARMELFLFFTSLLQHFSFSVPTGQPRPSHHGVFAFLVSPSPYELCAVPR
Chain of CYP2C19 (P33261 whole entry): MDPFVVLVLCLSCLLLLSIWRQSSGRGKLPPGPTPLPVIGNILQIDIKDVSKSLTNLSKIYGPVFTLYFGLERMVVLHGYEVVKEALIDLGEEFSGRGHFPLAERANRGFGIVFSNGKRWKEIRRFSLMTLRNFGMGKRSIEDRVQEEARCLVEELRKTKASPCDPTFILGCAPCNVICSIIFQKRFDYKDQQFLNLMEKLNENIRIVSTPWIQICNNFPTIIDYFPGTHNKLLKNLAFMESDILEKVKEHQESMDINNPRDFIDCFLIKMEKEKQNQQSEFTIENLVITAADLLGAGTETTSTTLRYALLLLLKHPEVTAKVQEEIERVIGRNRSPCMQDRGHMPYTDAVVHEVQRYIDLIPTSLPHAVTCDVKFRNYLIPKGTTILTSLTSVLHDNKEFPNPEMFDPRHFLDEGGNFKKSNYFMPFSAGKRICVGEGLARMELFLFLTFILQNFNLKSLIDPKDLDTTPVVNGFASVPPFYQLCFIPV
Chain of CYP1A2 (P05177 whole entry): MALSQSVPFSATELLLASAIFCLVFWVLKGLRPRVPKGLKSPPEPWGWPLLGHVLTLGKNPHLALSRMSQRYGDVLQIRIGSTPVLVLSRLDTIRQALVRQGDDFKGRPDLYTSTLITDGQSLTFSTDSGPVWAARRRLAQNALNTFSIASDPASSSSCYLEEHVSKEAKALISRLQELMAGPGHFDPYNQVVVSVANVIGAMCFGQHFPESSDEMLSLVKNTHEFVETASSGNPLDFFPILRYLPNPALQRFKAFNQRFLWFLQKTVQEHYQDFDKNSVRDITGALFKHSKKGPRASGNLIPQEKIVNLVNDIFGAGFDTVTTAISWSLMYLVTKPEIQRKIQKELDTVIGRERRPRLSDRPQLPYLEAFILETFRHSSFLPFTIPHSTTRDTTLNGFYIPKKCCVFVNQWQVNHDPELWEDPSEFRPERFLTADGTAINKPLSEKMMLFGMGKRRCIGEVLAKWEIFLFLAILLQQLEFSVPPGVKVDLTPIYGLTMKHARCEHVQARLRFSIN
Chain of COX1 (P23219 24-599): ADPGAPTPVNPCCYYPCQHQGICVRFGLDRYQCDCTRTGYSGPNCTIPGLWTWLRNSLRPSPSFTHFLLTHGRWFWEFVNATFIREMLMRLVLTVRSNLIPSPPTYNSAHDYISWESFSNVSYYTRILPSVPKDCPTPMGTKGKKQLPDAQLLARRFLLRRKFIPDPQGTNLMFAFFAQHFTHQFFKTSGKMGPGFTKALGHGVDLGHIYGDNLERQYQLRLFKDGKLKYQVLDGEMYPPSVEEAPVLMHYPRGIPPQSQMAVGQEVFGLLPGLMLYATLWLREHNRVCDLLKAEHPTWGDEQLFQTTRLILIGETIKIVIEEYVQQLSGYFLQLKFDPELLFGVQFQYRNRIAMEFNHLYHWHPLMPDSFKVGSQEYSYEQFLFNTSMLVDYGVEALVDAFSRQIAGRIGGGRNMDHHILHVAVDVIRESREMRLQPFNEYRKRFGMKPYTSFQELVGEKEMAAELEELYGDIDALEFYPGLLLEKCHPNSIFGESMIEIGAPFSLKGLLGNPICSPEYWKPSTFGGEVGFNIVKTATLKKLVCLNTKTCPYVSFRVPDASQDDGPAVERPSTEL

With `CCc1cnccc1C(=O)Nc1cc2c(cc1F)NC(=O)CC2` [MBE1, 3-ethyl-N-(7-fluoro-2-oxo-3,4-dihydro-1H-quinolin-6-yl)pyridine-4-carboxamide] as the compound, how does the “inhibitory activity against ALDH1A1 (in words)” value (human ALDH1A1) read?
The value was “no inhibition”.

What about the “Aldefluor activity at 100 nM (in words)” value [1] of the same compound?
Its value is “highest activity”.

What about the EC50 [1] of the same compound?
The EC50 was 5.1 nM.

What about the “reduction of atRA formation (in words)” value [2] of the same compound?
The value was “potently reduced atRA formation”.

What about the solubility kinetic (Kinetic solubility; [11]) of the same compound?
The solubility kinetic was greater than 200 µM.

And the solubility kinetic (Kinetic solubility; [12])?
Its solubility kinetic is greater than 200 µM.

And the half-life [3]?
Its half-life is 0.727 h.

What about the fraction unbound (Protein binding (human)) of the same compound?
The fraction unbound was 0.527.

And the inhibition at 10 µM (CYP1A2)?
Its inhibition at 10 µM is 8.8%.

And the inhibition at 10 µM (CYP2C19)?
The inhibition at 10 µM was 15.8%.

And the inhibition at 10 µM (CYP2D6)?
Its inhibition at 10 µM is 61.3%.

What about the inhibition at 10 µM (CYP3A4) of the same compound?
Its inhibition at 10 µM is 42%.

And the IC50 (hERG [4])?
The IC50 was 26600 nM.

And the IC50 (hERG [5])?
Its IC50 is greater than 30000 nM.

What about the inhibition at 10 µM (COX1) of the same compound?
The inhibition at 10 µM was -2.65%.

What about the IC50 (ALDH1A3 [6]; dose titration, substrate competition assay, recombinant human ALDH1A3, 4-parameter equation, read-out: huALDH1A3 IC50) of the same compound?
The IC50 was 148 nM.

What about the confirmatory screening result (ALDH1A3 [6]; hits of the 494-compound screen) of the same compound?
The confirmatory screening result was “true positives”.

And the Kd (ALDH1A3 [7])?
Its Kd is 71.7 nM.

What about the Oral bioavailability ([8]; 1 mg/kg i.v. and 10 mg/kg PO, fasted male CD-1 mice) of the same compound?
The Oral bioavailability was 88.3%.

What about the half-life ([8]; male, CD-1, mouse, plasma, po, 10 mg/kg) of the same compound?
Its half-life is 1.37 h.

What about the Cytotoxicity [9] of the same compound?
The Cytotoxicity was greater than 100 µM.

And the “CD4 T cells as percentage of total CD45^+ immune cells (in words)” value (T3-MCA tumors)?
Its value is “increased CD4 T cells”.

And the IC50 [10]?
Its IC50 is 3.67 nM.

What about the EC50 [10] of the same compound?
The EC50 was 3.67 nM.

Which results are given for `CCc1ccccc1C(=O)Nc1cc2c(cc1F)NC(=O)CC2` [MBE1.5, 2-ethyl-N-(7-fluoro-2-oxo-3,4-dihydro-1H-quinolin-6-yl)benzamide]?
inhibitory activity against ALDH1A1 (in words) (human ALDH1A1): no inhibition; Aldefluor activity at 100 nM (in words) [1]: highest activity; EC50 [1]: 1.9 nM; reduction of atRA formation (in words) [2]: potently reduced atRA formation; solubility kinetic (Kinetic solubility; [11]): 34.2 µM (≈ 10.7 µg/mL); solubility kinetic (Kinetic solubility; [12]): 33.3 µM (≈ 10.4 µg/mL); half-life [3]: 1.87 h; fraction unbound (Protein binding (human)): 0.137; inhibition at 10 µM (CYP1A2): 11.6%; inhibition at 10 µM (CYP2C19): 0%; inhibition at 10 µM (CYP2D6): 0%; inhibition at 10 µM (CYP3A4): 6.3%; IC50 (hERG [4]): > 30000 nM; IC50 (hERG [5]): > 30000 nM; IC50 (ALDH1A3 [6]; recombinant activity assay (Table 1), read-out: IC50 molecular, human ALDH1A3): 83 nM; competition mode (ALDH1A3 [6]; varying substrate and cofactor concentrations): noncompetitive inhibitor; Kd (ALDH1A3 [7]): 42.1 nM; bioavailability compared with MBE1 (in words) [8, 13]: reduced bioavailability; half-life compared with MBE1 (in words) [8, 13]: improved half-life; Cytotoxicity [9]: >100 µM; IC50 [10]: < 1 nM; EC50 [10]: 0.53 nM
